Measured values taken from ChEMBL document CHEMBL5365457, “Selective HDAC3 Inhibitors with Potent In Vivo Antitumor Efficacy against Triple-Negative Breast Cancer” (J Med Chem, 2023).

Key:
[1] = Cytotoxicity against human MCF-10A cells assessed as inhibition of cell growth incubated for 72 hrs by MTT assay; type: toxicity, cell-based
[2] = Selectivity ratio of IC50 for cytotoxicity against human MCF-10A cells assessed as inhibition of cell growth to IC50 for cytotoxicity against […] cells assessed as inhibition of cell growth; type: toxicity, cell-based; details: MCF-10A cells versus 4T1 cells, read-out: Ratio IC50
4T1 = assay: Cytotoxicity against mouse 4T1 cells assessed as inhibition of cell growth incubated for 72 hrs by MTT assay; type: functional, cell-based; details: 4T1, 72 h
[3] = Selectivity ratio of IC50 for cytotoxicity against human MCF-10A cells assessed as inhibition of cell growth to IC50 for cytotoxicity against human MDA-MB-453 cells assessed as inhibition of cell growth; type: toxicity, cell-based; details: MCF-10A cells versus MDA-MB-453 cells, read-out: Ratio IC50
[4] = Selectivity ratio of IC50 for cytotoxicity against human HEK293 cells assessed as inhibition of cell growth to IC50 for cytotoxicity against human MDA-MB-231 cells assessed as inhibition of cell growth; type: toxicity, cell-based; details: HEK293 cells versus MDA-MB-231 cells, read-out: Ratio IC50
[5] = Selectivity ratio of IC50 for cytotoxicity against human HEK293 cells assessed as inhibition of cell growth to IC50 for cytotoxicity against mouse 4T1 cells assessed as inhibition of cell growth; type: toxicity, cell-based; details: HEK293 cells versus 4T1 cells, read-out: Ratio IC50
[6] = Selectivity ratio of IC50 for cytotoxicity against human HCEC cells assessed as inhibition of cell growth to IC50 for cytotoxicity against human MCF7 cells assessed as inhibition of cell growth; type: toxicity, cell-based; details: HCEC cells versus MCF7 cells, read-out: Ratio IC50
[7] = Selectivity ratio of IC50 for cytotoxicity against human MCF-10A cells assessed as inhibition of cell growth to IC50 for cytotoxicity against human MDA-MB-231 cells assessed as inhibition of cell growth; type: toxicity, cell-based; details: MCF-10A cells versus MDA-MB-231 cells, read-out: Ratio IC50
[8] = Selectivity ratio of IC50 for cytotoxicity against human HEK293 cells assessed as inhibition of cell growth to IC50 for cytotoxicity against human MCF7 cells assessed as inhibition of cell growth; type: toxicity, cell-based; details: HEK293 cells versus MCF7 cells, read-out: Ratio IC50
[9] = Selectivity ratio of IC50 for cytotoxicity against human HEK293 cells assessed as inhibition of cell growth to IC50 for cytotoxicity against human MDA-MB-453 cells assessed as inhibition of cell growth; type: toxicity, cell-based; details: HEK293 cells versus MDA-MB-453 cells, read-out: Ratio IC50
[10] = Cytotoxicity against human HCEC cells assessed as inhibition of cell growth incubated for 72 hrs by MTT assay; type: toxicity, cell-based; details: human, HCEC cells
MDA-MB-231 = assay: Cytotoxicity against human MDA-MB-231 cells assessed as inhibition of cell growth incubated for 72 hrs by MTT assay; type: functional, cell-based; details: MDA-MB-231, 72 h
[11] = Selectivity ratio of IC50 for cytotoxicity against human HCEC cells assessed as inhibition of cell growth to IC50 for cytotoxicity against mouse 4T1 cells assessed as inhibition of cell growth; type: toxicity, cell-based; details: HCEC cells versus 4T1 cells, read-out: Ratio IC50
MCF7 = assay: Cytotoxicity against human MCF7 cells assessed as inhibition of cell growth incubated for 72 hrs by MTT assay; type: functional, cell-based; details: MCF7, 72 h
[12] = Selectivity ratio of IC50 for cytotoxicity against human HCEC cells assessed as inhibition of cell growth to IC50 for cytotoxicity against human MDA-MB-231 cells assessed as inhibition of cell growth; type: toxicity, cell-based; details: HCEC cells versus MDA-MB-231 cells, read-out: Ratio IC50
[13] = Selectivity ratio of IC50 for cytotoxicity against human MCF-10A cells assessed as inhibition of cell growth to IC50 for cytotoxicity against human MCF7 cells assessed as inhibition of cell growth; type: toxicity, cell-based; details: MCF-10A cells versus MCF7 cells, read-out: Ratio IC50
[14] = Cytotoxicity against human HEK293 cells assessed as inhibition of cell growth incubated for 72 hrs by MTT assay; type: toxicity, cell-based
MDA-MB-453 = assay: Cytotoxicity against human MDA-MB-453 cells assessed as inhibition of cell growth incubated for 72 hrs by MTT assay; type: functional, cell-based; details: MDA-MB-453, 72 h
[15] = Selectivity ratio of IC50 for cytotoxicity against human HCEC cells assessed as inhibition of cell growth to IC50 for cytotoxicity against human MDA-MB-453 cells assessed as inhibition of cell growth; type: toxicity, cell-based; details: HCEC cells versus MDA-MB-453 cells, read-out: Ratio IC50

Row | Compound | IC50 at 72 h [1] [µM] | selectivity ratio [2] | IC50 (4T1) [µM] | selectivity ratio [3] | selectivity ratio [4] | selectivity ratio [5] | selectivity ratio [6] | selectivity ratio [7] | selectivity ratio [8] | selectivity ratio [9] | IC50 at 72 h [10] [µM] | IC50 (MDA-MB-231) [µM] | selectivity ratio [11] | IC50 (MCF7) [µM] | selectivity ratio [12] | selectivity ratio [13] | IC50 at 72 h [14] [µM] | IC50 (MDA-MB-453) [µM] | selectivity ratio [15]
1 | CCCCNNC(=O)c1cnccn1 | 103 | > 40 | 0.88 | > 40 | > 40 | > 40 | > 40 | > 40 | > 40 | > 40 | 175 | 1.17 | > 40 | 2.44 | > 40 | > 40 | 101 | 2.52 | > 40
2 | CCCNNC(=O)c1cnc(N)cn1 | 139 | > 40 | 1.08 | > 40 | > 40 | > 40 | > 40 | > 40 | > 40 | > 40 | 220 | 0.88 | > 40 | 0.99 | > 40 | > 40 | 141 | 2.43 | > 40
3 | CCCCNNC(=O)c1cnc(NC(C)=O)cn1 | 106 |  | 2.74 |  |  |  |  |  |  |  | 187 | 3.05 |  | 1.65 |  |  | 229 | 7.94 | 
4 | CCCCNNC(=O)c1cnc(Nc2cccc3ccccc23)cn1 | 114 | > 40 | 0.98 | > 40 | > 40 | > 40 | > 40 | > 40 | > 40 | > 40 | 151 | 2.02 | > 40 | 4.16 | > 40 | > 40 | 189 | 4.67 | > 40
5 | CCCCNNC(=O)c1cnc(Nc2ccccc2)cn1 | 138 | > 40 | 2.17 | > 40 | > 40 | > 40 | > 40 | > 40 | > 40 | > 40 | 180 | 1.91 | > 40 | 1.14 | > 40 | > 40 | 207 | 5.18 | > 40
6 | CCCCNNC(=O)c1cnc(NC(=O)c2ccc3[nH]ccc3c2)cn1 | 105 |  | 1.43 |  |  |  |  |  |  |  | 130 | 1.69 |  | 2.44 |  |  | 107 | 4.05 | 
7 | CCCNNC(=O)c1cnccn1 | 117 | > 40 | 1.14 | > 40 | > 40 | > 40 | > 40 | > 40 | > 40 | > 40 | 128 | 1.07 | > 40 | 1.39 | > 40 | > 40 | 134 | 2.49 | > 40
